Data taken from US6747012B1, “Crystalline anthracycline antibiotic and process for producing the same” (Mercian Corporation, priority 1997, dated 2004).

Key:
Assay type in all cases: physicochemical
[1] = Tests for hygroscopicity (critical relative humidity); details: for Critical relative humidity (%): stored at 30° C., relative humidities 32 to 91%, until steady state, calculated from increases or decreases in moisture content, hydrochloride
Procedure: Samples of the powders (or crystalline powders) obtained in Examples 1-8 were stored at 30° C. and at relative humidities ranging from 32 to 91%. Their moisture contents were measured until a steady state was reached.

[2] = Tests for chemical stability (storage at 60° C., HPLC); details: for Amount of remaining DM (%): hermetically sealed container, 60° C. for 1 month, HPLC, hydrochloride
Procedure: Each of the same samples as used in Example 12 was placed in a hermetically sealed container and stored at 60° C. for 1 month. Then, the sample was analyzed by HPLC to determine the DM content in the sample.
(Conditions for Analysis by HPLC)
Column: YMC A-312 (ODS) (manufactured by YMC Co., Ltd.).
Mobile phase: Acetonitrile-water (38:62) (adjusted to pH 2.2 with phosphoric acid).
Flow velocity: About 1.5 ml/min.

[3] = Residual solvent content by gas chromatography; details: for Residual solvent content (%): gas chromatography (GC), hydrochloride
Procedure: Each of the same samples as used in Example 12 was analyzed by gas chromatography (GC) to determine its residual solvent content.
(Operating Conditions for Analysis by GC)
Detector: Flame ionization detector.
Column temperature: Operated at 40° C. for 5 minutes, and then raised to 80° C. in 5 minutes and held at that temperature.
Vaporization chamber temperature: A constant temperature around 200°.
Flow rate: A constant flow rate at which the retention time of an internal standard substance (dioxane) is about 6 minutes.

SMILES | Critical relative humidity (%) [1] | Amount of remaining DM (%) [2] | Residual solvent content (%) [3] | hygroscopicity (in words) ([1]; conclusion from Table 1) | chemical stability (in words) ([2]; conclusion from Table 2) | residual solvent content (in words) ([3]; conclusion from Table 3)
COc1cccc2c1C(=O)c1c(O)c3c(c(O)c1C2=O)CC(O)(C(C)=O)CC3OC1CC(N)C(O)C(C)O1.Cl (stereo not drawn) [Ex.8, DM hydrochloride] | 53% | 96.5% | 0.95% |  |  | 
COc1cccc2c1C(=O)c1c(O)c3c(c(O)c1C2=O)CC(O)(C(C)=O)CC3OC1CC(N)C(O)C(C)O1.Cl (stereo not drawn) [Ex.1, DM hydrochloride] | 34% | 91.4% | 0.14% |  |  | 
COc1cccc2c1C(=O)c1c(O)c3c(c(O)c1C2=O)CC(O)(C(C)=O)CC3OC1CC(N)C(O)C(C)O1.Cl (stereo not drawn) [Ex.2, DM hydrochloride] | 73% | 100% | 0.40% | very low hygroscopicity | excellent chemical stability | within an acceptable limit
COc1cccc2c1C(=O)c1c(O)c3c(c(O)c1C2=O)CC(O)(C(C)=O)CC3OC1CC(N)C(O)C(C)O1.Cl (stereo not drawn) [Ex.3, DM hydrochloride] | 41% | 97.1% | 0.03% |  |  | 
COc1cccc2c1C(=O)c1c(O)c3c(c(O)c1C2=O)CC(O)(C(C)=O)CC3OC1CC(N)C(O)C(C)O1.Cl (stereo not drawn) [Ex.4, DM hydrochloride] | 28% | 90.4% | 0.50% |  |  | 

Now from value to molecule:

Critical relative humidity (%) [1] | Amount of remaining DM (%) [2] | Residual solvent content (%) [3] | hygroscopicity (in words) ([1]; conclusion from Table 1) | chemical stability (in words) ([2]; conclusion from Table 2) | residual solvent content (in words) ([3]; conclusion from Table 3) | SMILES
29% | 94.2% | 0.18% |  |  |  | COc1cccc2c1C(=O)c1c(O)c3c(c(O)c1C2=O)CC(O)(C(C)=O)CC3OC1CC(N)C(O)C(C)O1.Cl (stereo not drawn) [Ex.6, DM hydrochloride]
29% | 97.5% | 0.19% |  |  |  | COc1cccc2c1C(=O)c1c(O)c3c(c(O)c1C2=O)CC(O)(C(C)=O)CC3OC1CC(N)C(O)C(C)O1.Cl (stereo not drawn) [Ex.5, DM hydrochloride]
41% | 97.2% | 0.05% |  |  |  | COc1cccc2c1C(=O)c1c(O)c3c(c(O)c1C2=O)CC(O)(C(C)=O)CC3OC1CC(N)C(O)C(C)O1.Cl (stereo not drawn) [Ex.7, DM hydrochloride]
